Reference: patent US20140213508A1, “ANTIVIRAL MACROCYCLES” (priority 2012, published 2014)
Read-outs that look alike come from different tables or passages of the source. Numbered stars: 1 amine (or outer) side, 2 acyl side, 3 side chain; on linkers, the order of the positions; unused ones are H or OH. Square brackets hold non-standard residues; d marks the D form. Peptide text beside a SMILES is read from it. ξ: configuration not given here. X1 = CN(C)C1(CS[C@H](C(=O)[*:2])N(C)[*:1])CCC1; ξNMeBmt = C/C=C/C[C@@H](C)[C@@H](O)C(NC)C(=O)O; X2 = CC(C)[C@H](C(=O)[*:2])N(Cc1ccccc1)[*:1]; X3 = CCNC1(CS[C@H](C(=O)[*:2])N(C)[*:1])CC1; X4 = CNC1(CS[C@H](C(=O)[*:2])N(C)[*:1])CC1; NMeLeu(4-OH) = CN[C@@H](CC(C)(C)O)C(=O)O; NMeL = CN[C@@H](CC(C)C)C(=O)O; dNMeL = CN[C@H](CC(C)C)C(=O)O; dNMeV = CN[C@@H](C(=O)O)C(C)C; dAbu = CC[C@@H](N)C(=O)O

What was measured:
[1] = system: IFN-α production in human peripheral blood mononuclear cells; experiment: IFN-α production in human PBMCs (ELISA); assay type: cell-based; conditions: 2 μM for 24 hours, individual wells
Procedure: Cryopreserved commercial or previously isolated PBMCs from HCV donors cryopreserved in RPMI1640)/Fetal Bovine/DMSO solution (50/40/10 v/v) were tested with compounds provided herein. […]
PBMC were cultured for 24 hours at 37° C. in RPMI cell culture medium in flat bottom 48 well-plates. Each well received 180 μL of cell suspension (2×10^6 cells/mL). […] At the end of the incubation, the plates are centrifuged at 200 times g for 5 minutes. The cell supernatants are collected and assayed by ELISA for cytokines IFN-α's (the detection reagent recognized 14 of the 15 known human IFN-α subtypes) and IFN-λ1 (IL-29). The cell pellet is washed twice with cold PBS and ATP content are determined by adding 100 μL per well of the Cell Titer Glo® (Promega, Madison, Wis.). Plates are then placed at −80° C. until protein analysis. For the protein analysis, plates are thawed, scraped and the protein content of the cell suspension determined using BCA Protein Assay Kit (23227, ThermoScientific, Rockford Ill.).

[2] = system: HBV entry into cultured hepatocytes (HepaRG cells); experiment: Inhibition of HBV entry into HepaRG cells; assay type: cell-based; conditions: Hepatitis B virus, 288 h, read-out: IC50 HBV entry
[3] = system: Dengue virus DENV1 strain; experiment: Dengue virus infection and replication assay in HuH7 cells; assay type: cell-based; conditions: read-out: IC50 Dengue virus production
Procedure: Compounds A, B, and F were tested for activity against Dengue virus in a cell-based assay of viral infection and replication. HuH7 cells were infected with the DENV1 strain (multiplicity of infection=0.1). After a 1 hour incubation to allow viral attachment and infection, compounds were added (at concentrations of 1, 3 and 9 μM, in triplicate). Incubation was continued for 5 days, and cells and media were then harvested for analysis. Viral replication was assessed by a real-time RT-PCR assay for virus present in the media, and cells were assayed for metabolic viability (MTT assay).

[4] = system: IFN-λ1 (IL-29) production in human peripheral blood mononuclear cells; experiment: IL-29 production in human PBMCs (ELISA); assay type: cell-based; conditions: 2 μM for 24 hours; for pg/mL IL29 Av.: average; for pg/mL IL29: individual wells
[5] = system: IFN-α production in human peripheral blood mononuclear cells; experiment: IFN-α production in human PBMCs (ELISA); assay type: cell-based; conditions: 2 μM for 24 hours; for pg/mL IFNα Av.: average; for pg/mL IFNα: individual wells
[6] = system: Influenza A H1N1 (A/CA/05/09); experiment: Anti-influenza virus cytoprotection assay in MDCK cells; assay type: cell-based; conditions: in triplicate, read-out: IC50 against Influenza A H1N1
Cyclophilin A = Cyclophilin A (Homo sapiens, UniProt P62937); experiment: Cyclophilin binding competitive ELISA; conditions: human recombinant cyclophilin
Cyclophilin B = Cyclophilin B (Homo sapiens, UniProt P23284); experiment: Cyclophilin binding competitive ELISA; conditions: human recombinant cyclophilin
Description: Plates were washed as described above. […] Plates were washed as described above.

[7] = system: HCV RNA replicon Genotype 1b; experiment: HCV replicon assay, 1b replicon (LUC); conditions: Hepatitis C virus, 72 h, read-out: mean EC50 Genotype 1b
Description: Compounds were examined in the human hepatoma cell a HCV RNA replicon containing a stable luciferase (LUC) reporter. The HCV RNA replicon ET contains the 5′ end of HCV (with the HCV Internal Ribosome Entry Site (IRES) and the first few amino acids of the HCV core protein) which drives the production of neomycin phosphotransferase (NeoR) fusion protein. A luciferase reported is incorporated into 1b replicon. The EMCV IRES element controls the translation of the HCV structural proteins NS3-NS5. The NS3 protein cleaves the HCV polyprotein to release the mature NS3, NS4A, NS4B, NS5A and NS5B proteins that are required for HCV replication. At the 3′ end of the replicon is the authentic 3′ NTR of HCV. The activity of the LUC reporter is directly proportional to HCV replication levels and positive-control antiviral compounds produce a reproducible antiviral response using the LUC endpoint.
The compounds were dissolved in DMSO at six half-log concentrations. HCV replicon cells were plated out into 96 well plates dedicated for the analysis of cell numbers (cytotoxicity) or antiviral activity and the next day the compounds were added to the appropriate wells. […] Compound EC50 and EC90 values were derived from HCV RNA levels assessed as HCV RNA replicon derived LUC activity. […] Compound IC50 and IC90 values were calculated using a colorimetric assay as an indication of cell numbers and cytotoxicity. […]

[8] = donor CT2 (test 3) (HCV, cryopreserved PBMCs)
[9] = HepaRG cells, HBs level by ELISA 12 days post-infection
[10] = donor Healthy 2, background subtracted

Chain of Cyclophilin A (P62937 whole entry): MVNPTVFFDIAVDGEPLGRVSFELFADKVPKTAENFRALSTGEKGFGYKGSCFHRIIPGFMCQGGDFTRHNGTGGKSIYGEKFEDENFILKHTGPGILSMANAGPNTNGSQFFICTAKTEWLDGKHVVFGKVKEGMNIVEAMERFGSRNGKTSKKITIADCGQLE
Chain of Cyclophilin B (P23284 34-216): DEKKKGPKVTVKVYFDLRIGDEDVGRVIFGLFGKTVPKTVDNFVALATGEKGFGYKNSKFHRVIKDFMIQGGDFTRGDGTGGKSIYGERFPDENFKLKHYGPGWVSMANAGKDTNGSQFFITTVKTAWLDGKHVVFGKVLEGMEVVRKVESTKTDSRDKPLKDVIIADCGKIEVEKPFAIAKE

Compound | pg/mL IFNα [1, 8] [pg/mL] | IC50 [2, 9] [nM] | IC50 ([3]; DENV1, Huh-7, 120 h) [nM] | pg/mL IL29 ([4]; donor Healthy 1) | pg/mL IL29 Av. ([4]; donor Healthy 3) | pg/mL IL29 ([4]; donor Healthy 3) | pg/mL IFNα Av. ([5]; donor Healthy 1) | pg/mL IFNα ([5]; donor Healthy 1) | pg/mL IFNα Av. ([5]; donor Healthy 2) | pg/mL IFNα ([5]; donor Healthy 2) | pg/mL IFNα Av. ([5]; donor Healthy 3) | pg/mL IFNα ([5]; donor Healthy 3) | IC50 (Cyclophilin A) [nM] | IC50 (Cyclophilin B) [nM] | EC50 [7] [nM] | further results
CC=CC[C@@H](C)[C@@H](O)C1C(=O)NC(CC)C(=O)N(C)C(SCC2(N(C)C)CC2)C(=O)N(C)[C@@H](CC(C)(C)O)C(=O)NC(C(C)C)C(=O)N(C)C(CC(C)C)C(=O)NC(C)C(=O)NC(C)C(=O)N(C)C(CC(C)C)C(=O)N(C)C(CC(C)C)C(=O)N(C)C(C(C)C)C(=O)N1C (stereo in doubt) [Compound A] | 7 | 1600 | > 9000 | <LOQ | <LOQ | <LOQ | <LOQ | <LOQ | <LOQ | <LOQ | <LOQ | <LOQ |  |  |  | pg/mL IFNα ([1]; donor CT2 (HCV), first test): 4 pg/mL; pg/mL IL29 Av. ([4]; donor Healthy 1): <LOQ
CC=CC[C@@H](C)[C@@H](O)C1C(=O)NC(CC)C(=O)N(C)C(SCC2(N(C)C(C)C)CC2)C(=O)N(C)[C@@H](CC(C)(C)O)C(=O)NC(C(C)C)C(=O)N(C)C(CC(C)C)C(=O)NC(C)C(=O)NC(C)C(=O)N(C)C(CC(C)C)C(=O)N(C)C(CC(C)C)C(=O)N(C)C(C(C)C)C(=O)N1C (stereo in doubt) [Compound B] | 8 | < 1000 |  | 20 pg/mL and <LOQ | <LOQ | <LOQ | <LOQ | <LOQ | <LOQ | <LOQ | <LOQ | <LOQ |  |  |  | IC50 ([3]; Huh-7, 120 h, HuH7 cells, DENV1, 5 days, real-time RT-PCR of media): 1000 nM; pg/mL IL29 Av. [4, 10]: <LOQ; pg/mL IL29 [4, 10]: <LOQ
C/C=C/C[C@@H](C)[C@@H](O)C1C(=O)N[C@H](CC)C(=O)N(C)[C@H](SCC2(N(C)C)CCC2)C(=O)N(C)[C@@H](CC(C)C)C(=O)N(Cc2ccccc2)[C@H](C(C)C)C(=O)N(C)[C@H](CC(C)C)C(=O)N[C@H](C)C(=O)N[C@@H](C)C(=O)N(C)[C@H](CC(C)C)C(=O)N(C)[C@H](CC(C)C)C(=O)N(C)[C@H](C(C)C)C(=O)N1C (stereo partly shown) [Compound F] (cyclo(A[dNMeL][dNMeL][dNMeV][ξNMeBmt][dAbu][X1][NMeL][X2][dNMeL][dA])) |  |  | 1400 |  |  |  |  |  |  |  |  |  |  |  |  | IC50 [6]: 5400 nM; IC50 ([2]; HepaRG): < 1000 nM
C/C=C/C[C@@H](C)[C@@H](O)C1C(=O)N[C@H](CC)C(=O)N(C)[C@H](SCC2(NC)CC2)C(=O)N(C)[C@@H](CC(C)(C)O)C(=O)N[C@H](C(C)C)C(=O)N(C)[C@H](CC(C)C)C(=O)N[C@H](C)C(=O)N[C@@H](C)C(=O)N(C)[C@H](CC(C)C)C(=O)N(C)[C@H](CC(C)C)C(=O)N(C)[C@H](C(C)C)C(=O)N1C (stereo partly shown) [Compound G] (cyclo(A[dNMeL][dNMeL][dNMeV][ξNMeBmt][dAbu][X4][NMeLeu(4-OH)][dV][dNMeL][dA])) |  |  |  |  |  |  |  |  |  |  |  |  | 29 | 50 | 60 | 
C/C=C/C[C@@H](C)[C@@H](O)C1C(=O)N[C@H](CC)C(=O)N(C)[C@H](SCC2(NCC)CC2)C(=O)N(C)[C@@H](CC(C)(C)O)C(=O)N[C@H](C(C)C)C(=O)N(C)[C@H](CC(C)C)C(=O)N[C@H](C)C(=O)N[C@@H](C)C(=O)N(C)[C@H](CC(C)C)C(=O)N(C)[C@H](CC(C)C)C(=O)N(C)[C@H](C(C)C)C(=O)N1C (stereo partly shown) [Compound H] (cyclo(A[dNMeL][dNMeL][dNMeV][ξNMeBmt][dAbu][X3][NMeLeu(4-OH)][dV][dNMeL][dA])) |  |  |  |  |  |  |  |  |  |  |  |  | 14 | 16 | 40 | 
